This note sets out measurements from US20250257041A1, “INDUCERS OF INTEGRATED STRESS RESPONSE TO TREAT CANCER” (The Board of Regents of The University of Texas System, priority 2022, published 2025).

One assay relates to HCT116 WT. Nature of the assay: Proliferation of HCT116 colorectal cell line, Cell TiterGlo. The assay is classed as cell-based, human. The following applies: Homo sapiens, HCT-116, read-out: HCT116 IC50 (uM) HCT116 WT. The method, then:
Briefly, compounds were tested for their effect on proliferation of HCT116 colorectal cell lines using Cell TiterGlo (Promega). Each compound was tested in a 10-point dose response experiment in triplicate. Multiple values in the column titled HCT116 WT reflect separate independent experiments. The three columns titled “HCT116 WT (repeat)”, “HCT116-CGN2KO” and “HCT116 WT+ISRIB” provide data for selected compounds that were tested simultaneously under three conditions. The HCT116 WT column lists IC50 against the wild type HCT116 colorectal cancer cell line. The HCT116-CGN2KO lists IC50 data for cells in which one component of the integrated stress response, GCN2, has been knocked out using CRISPR technology.
For orientation: In ATP-based viability assays light output follows the ATP content of the culture.
Broadly, the IC50 is the concentration needed to halve the response being measured. With `CSc1cccc(C(=O)Nc2cc(-c3ccc(NC(=O)c4ccccc4)cc3)nn2C)c1` [SW389160, N-(3-(4-Benzamidophenyl)-1-methyl-1H-pyrazol-5-yl)-3-(methylthio)benzamide], the IC50 was 0.226 µM.

Still in this assay, the particulars now being: Homo sapiens, HCT-116, read-out: HCT116 IC50 (uM) HCT116 WT (repeat).
Turning to `CSc1cccc(C(=O)Nc2cc(-c3ccc(NC(=O)c4ccccc4)cc3)nn2C)c1` [SW389160, N-(3-(4-Benzamidophenyl)-1-methyl-1H-pyrazol-5-yl)-3-(methylthio)benzamide], the 50% inhibitory concentration (IC50) came out at 0.29 µM.

Still in this assay, the particulars now being: Homo sapiens, HCT-116, wild type HCT116; 10-point dose response in triplicate; multiple values = separate independent experiments; read-out: HCT116 IC50 (uM) HCT116 WT.
As for `Cn1nc(-c2ccc(NC(=O)C3CCCO3)cc2)cc1NC(=O)c1ccccc1` (single isomer, unassigned) [SW394516 (isomer 2)], the IC50 turned out to be 0.77 µM.

Turning to `Cn1nc(-c2ccc(NC(=O)c3ccccc3Cl)cc2)cc1NC(=O)C1CCCC(NC(=O)OC(C)(C)C)C1` (single isomer, unassigned) [SW394868-isomer 2], the IC50 was 0.12 µM.

Consider `Cn1nc(-c2ccc(NC(=O)c3ccccc3Cl)cc2)cc1NC(=O)[C@H]1CCC[C@@H](N)C1` (single isomer, unassigned) [SW394869-isomer 1], for which the concentration for half-maximal inhibition (IC50) came out at 0.04 µM.

As to `Cn1nc(-c2ccc(NC(=O)c3ccccc3)cc2)cc1NC(=O)c1ccccc1` [SW106593, N-(4-(5-Benzamido-1-methyl-1H-pyrazol-3-yl)phenyl)benzamide], the IC50 was found to be 0.22 µM.

Consider `COc1ccc(C(=O)Nc2cc(-c3ccc(NC(=O)OC(C)(C)C)cc3)nn2C)cc1` [SW388709, tert-Butyl-(4-(5-(4-methoxybenzamido)-1-methyl-1H-pyrazol-3-yl)phenyl)carbamate], for which the IC50 was determined as 16 µM.

For the compound `COc1cccc(C(=O)Nc2ccc(-c3cc(NC(=O)c4ccccc4)n(C)n3)cc2)c1` [SW388711, N-(4-(5-Benzamido-1-methyl-1H-pyrazol-3-yl)phenyl)-3-methoxybenzamide], the IC50 was 1.09 µM.

Take `COc1cccc(C(=O)Nc2cc(-c3ccc(NC(=O)OC(C)(C)C)cc3)nn2C)c1` [SW388712, tert-Butyl (4-(5-(3-methoxybenzamido)-1-methyl-1H-pyrazol-3-yl)phenyl)carbamate]: the IC50 is 0.69 µM.

Take `Cn1nc(-c2ccc(NC(=O)OC(C)(C)C)cc2)cc1NC(=O)c1ccccc1` [SW388713, tert-Butyl (4-(5-benzamido-1-methyl-1H-pyrazol-3-yl)phenyl)carbamate]: the IC50 was found to be 1.1 µM.

On to `Cn1nc(-c2ccc(N)cc2)cc1NC(=O)c1ccccc1` [SW388714, N-(3-(4-Aminophenyl)-1-methyl-1H-pyrazol-5-yl)benzamide], for which the IC50 came to 16 µM.

Regarding `COc1ccc(C(=O)Nc2ccc(-c3cc(NC(=O)c4ccccc4)n(C)n3)cc2)cc1` [SW388716, N-(4-(5-Benzamido-1-methyl-1H-pyrazol-3-yl)phenyl)-4-methoxybenzamide], the IC50 amounted to 19 µM.

In the case of `COc1ccc(C(=O)Nc2cc(-c3ccc(NC(=O)c4ccccc4)cc3)nn2C)cc1` [SW388718, N-(3-(4-Benzamidophenyl)-1-methyl-1H-pyrazol-5-yl)-4-methoxybenzamide], the half-inhibitory concentration (IC50) stood at 2.03 µM.

Turning to `C#Cc1cccc(C(=O)Nc2cc(-c3ccc(NC(=O)c4ccccc4N=[N+]=[N-])cc3)nn2C)c1` [SW393185, 2-Azido-N-(4-(5-(3-ethynylbenzamido)-1-methyl-1H-pyrazol-3-yl)phenyl)benzamide], the IC50 was found to be 0.13 µM.

As for `C#CCOc1cccc(C(=O)Nc2cc(-c3ccc(NC(=O)c4ccccc4N=[N+]=[N-])cc3)nn2C)c1` [SW393186, 2-Azido-N-(4-(1-methyl-5-(3-(prop-2-yn-1-yloxy)benzamido)-1H-pyrazol-3-yl)phenyl)benza-mide], the IC50 amounted to 0.1 µM.

In the case of `Cn1nc(-c2ccc(NC(=O)c3ccccc3Cl)cc2)cc1NC(=O)c1cccc(C(=O)c2ccccc2)c1` [SW393187, N-(4-(5-(3-benzoylbenzamido)-1-methyl-1H-pyrazol-3-yl)phenyl)-2-chlorobenzamide], the half-maximal inhibitory concentration (IC50) amounted to 0.14 µM.

As to `Cn1nc(-c2ccc(NC(=O)c3ccccc3Cl)cc2)cc1NC(=O)c1ccc(C(=O)c2ccccc2)cc1` [SW393188, N-(4-(5-(4-benzoylbenzamido)-1-methyl-1H-pyrazol-3-yl)phenyl)-2-chlorobenzamide], the IC50 was 0.6 µM.

As to `C#CCOCc1ccccc1C(=O)Nc1ccc(-c2cc(NC(=O)c3ccccc3)n(C)n2)cc1` [SW393189, N-(4-(5-benzamido-1-methyl-1H-pyrazol-3-yl)phenyl)-2-((prop-2-yn-1-yloxy)methyl)benzamide], the IC50 amounted to 0.06 µM.

Regarding `C#CCOc1cccc(C(=O)Nc2cc(-c3ccc(NC(=O)c4cc(N=[N+]=[N-])ccc4Cl)cc3)nn2C)c1` [SW393213, 5-Azido-2-chloro-N-(4-(1-methyl-5-(3-(prop-2-yn-1-yloxy)benzamido)-1H-pyrazol-3-yl)phe-nyl)benzamide], the half-inhibitory concentration (IC50) amounted to 0.37 µM.

As to `CCn1nc(-c2ccc(NC(=O)c3ccccc3Cl)cc2)cc1NC(=O)c1ccccc1` [SW393214, N-(4-(5-Benzamido-1-ethyl-1H-pyrazol-3-yl)phenyl)-2-chlorobenzamide], the IC50 turned out to be 0.57 µM.

Turning to `O=C(Nc1cc(-c2ccc(NC(=O)c3ccccc3Cl)cc2)nn1Cc1ccccc1)c1ccccc1` [SW393215, N-(4-(5-Benzamido-1-benzyl-1H-pyrazol-3-yl)phenyl)-2-chlorobenzamide], the IC50 was determined as 0.62 µM.

Take `Cc1c(-c2ccc(NC(=O)c3ccccc3Cl)cc2)nn(C)c1NC(=O)c1ccccc1` [SW393216, N-(4-(5-Benzamido-1,4-dimethyl-1H-pyrazol-3-yl)phenyl)-2-chlorobenzamide]: the IC50 amounted to 0.07 µM.

In the case of `Cc1ccccc1C(=O)Nc1cc(-c2ccc(NC(=O)c3ccccc3Cl)cc2)nn1C` [SW393217, 2-chloro-N-(4-(1-methyl-5-(2-methylbenzamido)-1H-pyrazol-3-yl)phenyl)benzamide], the IC50 amounted to 0.03 µM.

`Cn1nc(-c2ccc(NC(=O)c3ccccc3Cl)cc2)cc1NC(=O)c1ccccc1Br` [SW393218, 2-bromo-N-(3-(4-(2-chlorobenzamido)phenyl)-1-methyl-1H-pyrazol-5-yl)benzamide]: the IC50 was 0.02 µM.

Regarding `Cn1nc(-c2ccc(NC(=O)c3ccccc3F)cc2)cc1NC(=O)c1ccccc1` [SW393241, N-(4-(5-Benzamido-1-methyl-1H-pyrazol-3-yl)phenyl)-2-fluorobenzamide], the IC50 stood at 0.04 µM.

Consider `C#Cc1cccc(C(=O)Nc2cc(-c3ccc(NC(=O)c4ccc(C5(C(F)(F)F)N=N5)cc4)cc3)nn2C)c1` [SW393242, 3-Ethynyl-N-(1-methyl-3-(4-(4-(3-(trifluoromethyl)-3H-diazirin-3-yl)benzamido)phenyl)-1H-pyrazol-5-yl)benzamide], for which the IC50 was determined as 1.35 µM.

Staying with this assay, now noted: read-out: HCT116 IC50 (uM) HCT116 WT + ISRIB; wild type HCT116, compound plus 10 nM of ISRIB.
`CSc1cccc(C(=O)Nc2cc(-c3ccc(NC(=O)c4ccccc4)cc3)nn2C)c1` [SW389160, N-(3-(4-Benzamidophenyl)-1-methyl-1H-pyrazol-5-yl)-3-(methylthio)benzamide]: the IC50 came out at 2.48 µM.

The assay is the same for the next values; noted with them: wild type HCT116; 10-point dose response in triplicate; multiple values = separate independent experiments.
On to `Cn1nc(-c2ccc(NC(=O)C3CCCO3)cc2)cc1NC(=O)c1ccccc1` (single isomer, unassigned) [SW394516 (isomer 1)], for which the “HCT116 IC50 (uM) HCT116 WT” value is “inactive”.

In the case of `COc1cccc(C(=O)Nc2cc(-c3ccc(N)cc3)nn2C)c1` [SW388715, N-(3-(4-Aminophenyl)-1-methyl-1H-pyrazol-5-yl)-3-methoxybenzamide], the “HCT116 IC50 (uM) HCT116 WT” value is “inactive”.

In the case of `COc1ccc(C(=O)Nc2cc(-c3ccc(N)cc3)nn2C)cc1` [SW388717, N-(3-(4-Aminophenyl)-1-methyl-1H-pyrazol-5-yl)-4-methoxybenzamide], the “HCT116 IC50 (uM) HCT116 WT” value was “inactive”.

The assay is the same for the next values; noted with them: wild type HCT116; 10-point dose response in triplicate; multiple values = separate independent experiments; read-out: HCT116 IC50 (uM) HCT116 WT.
Turning to `C#CCOc1ccccc1C(=O)Nc1ccc(-c2cc(NC(=O)c3cccc(N=[N+]=[N-])c3)n(C)n2)cc1` [SW393066, N-(4-(5-(3-Azidobenzamido)-1-methyl-1H-pyrazol-3-yl)phenyl)-2-(prop-2-yn-1-yloxy)benza-mide], the IC50 worked out at 9.4 µM.

The same assay, now with this note: wild type HCT116; tested simultaneously with GCN2KO and +ISRIB; read-out: HCT116 IC50 (uM) HCT116 WT (repeat).
As for `C#CCOc1ccccc1C(=O)Nc1ccc(-c2cc(NC(=O)c3cccc(N=[N+]=[N-])c3)n(C)n2)cc1` [SW393066, N-(4-(5-(3-Azidobenzamido)-1-methyl-1H-pyrazol-3-yl)phenyl)-2-(prop-2-yn-1-yloxy)benza-mide], the IC50 worked out at 7.18 µM.
